Assay results: publication PMC5841303, “In silico screening for human norovirus antivirals reveals a novel non-nucleoside inhibitor of the viral polymerase” (Scientific Reports, 2018)

Experiments:
[1] = target: T1, MNV RdRp (Norovirus, UniProt Q80J95); assay: Fluorescent RdRp activity assay, MNV RdRp; format: biochemical, murine norovirus; conditions: 0.1–100 µM; read-out: IC50 against MNV RdRp
T1 construct: made in house
Description: (§1) The antiviral activity of the four compounds (11, 13, 42a and 54) were examined for inhibition of RNA polymerases from other viruses spanning three genera of the Caliciviridae family, including Norovirus (human norovirus and MNV), Lagovirus (rabbit haemorrhagic disease virus [RHDV]) and Sapovirus (human sapovirus). […] The protein sequence of the examined calicivirus polymerases has an identity range between 30.2–61.4%, and therefore the broad-spectrum activity of these compounds could be attributed to a common, highly-conserved binding pocket across the RdRps, as has been previously reported with broad-spectrum activity of other site-B binding NNIs[16]. Moreover, the ability of each compound to inhibit the different RdRps in a similar range could be further confirmation of targeting a well-conserved binding site of the Caliciviridae family.
Recombinant calicivirus RdRps (GenBank accession numbers) norovirus GII.Pe/GII.4 Sydney 2012 (KT239579), MNV GV CW1 (DQ285629), RHDV Czech V351 (KF594473.1), and SaV GI.1 Mc114 (AY237422) were expressed and purified as described previously[60],[61]. […]
Fluorescent RdRp activity assays were carried out as previously described[14],[62]. Briefly, RdRp activity was quantified by monitoring the formation of double-stranded RNA (dsRNA) from a single stranded homopolymeric template, poly(C) (Sigma Aldrich, St Louis, MO, USA), using the fluorescent dye PicoGreen (Life Technologies, Carlsbad, CA, USA). […] RdRps were incubated for 10 mins at 30 °C in the presence of the test compounds or the compound vehicle DMSO (0.5% vol/vol) before addition into the reaction mixture, which was then allowed to run 15 min at 30 °C then terminated with 10 mM EDTA, followed by PicoGreen staining and dsRNA quantitation. […] In cases where fluorescent enhancement was recorded for a compound instead of inhibition, a secondary gel-based polymerase activity assay was used as a counter-screen as described below, to exclude the possibility of RdRp activity enhancement (Supplementary Fig. S1). […] Antagonism was calculated using Compusyn software V1.0[59]. […]

[2] = target: human norovirus Sydney 2012 RdRp (Norovirus GII.4 (Norwalk virus, human norovirus), UniProt K4L8Z7); assay: Fluorescent de novo RdRp activity assay (PicoGreen, poly(C) template); format: biochemical
Experimental: The 62 compounds identified in silico were screened for inhibition of norovirus RdRp activity using an in vitro fluorescent, de novo RdRp assay. Compounds were tested at fixed concentrations of 10 µM and 100 µM, and compared to mock treated samples containing the vehicle only (0.5% DMSO [vol/vol]) (Fig. 4A,B). […] For certain compounds, significant insolubility was observed, coupled with either inherent fluorescence quenching (positive y-axis values on Fig. 4A,B) or enhancement of the fluorescence signal (negative y-axis values).
The newly synthesised compounds, including the re-prepared hit 13 and some synthesis intermediates (Table 1), were initially evaluated on norovirus Sydney 2012 RdRp activity in vitro using a quantitative fluorescent assay. Compounds were tested at a fixed concentration of 10 μM and compared to the relative activity of mock treated samples.
Recombinant calicivirus RdRps (GenBank accession numbers) norovirus GII.Pe/GII.4 Sydney 2012 (KT239579), MNV GV CW1 (DQ285629), RHDV Czech V351 (KF594473.1), and SaV GI.1 Mc114 (AY237422) were expressed and purified as described previously[60],[61]. RdRp resistance mutants were generated using the QuikChange site-directed mutagenesis kit (Agilent Technologies, Santa Clara, CA, USA) and confirmed by Sanger sequencing.
Fluorescent RdRp activity assays were carried out as previously described[14],[62]. Briefly, RdRp activity was quantified by monitoring the formation of double-stranded RNA (dsRNA) from a single stranded homopolymeric template, poly(C) (Sigma Aldrich, St Louis, MO, USA), using the fluorescent dye PicoGreen (Life Technologies, Carlsbad, CA, USA). RdRp assays were performed in 384-well plates, and each reaction mixture contained 400 ng enzyme, 45 µM GTP, 10 ng/µL poly(C) RNA, 2.5 mM MnCl2, 5 mM dithiothreitol, (DTT), 0.01% bovine serum albumin (BSA), and 0.005% Tween 20 in 20 mM Tris-HCl, pH 7.5, with a final reaction volume of 25 µL. The previous published norovirus NNI NIC02 was used as a positive control. RdRps were incubated for 10 mins at 30 °C in the presence of the test compounds or the compound vehicle DMSO (0.5% vol/vol) before addition into the reaction mixture, which was then allowed to run 15 min at 30 °C then terminated with 10 mM EDTA, followed by PicoGreen staining and dsRNA quantitation. GraphPad Prism V6.05 (La Jolla, CA, USA) was used to plot the IC50 values. In cases where fluorescent enhancement was recorded for a compound instead of inhibition, a secondary gel-based polymerase activity assay was used as a counter-screen as described below, to exclude the possibility of RdRp activity enhancement (Supplementary Fig. S1). Primed elongation activity was examined in a gel-based assay as previously described[16],[63] using the RNA template (PE44-NoV, Fig. 4D). Gels were imaged using BioRad (Hercules, CA, U.SA) Geldoc Universal Hood II, running BioRad Image Lab software, V4.1, build 16. Antagonism was calculated using Compusyn software V1.0[59]. 54 and PPNDS (4:1 ratio) were tested alone and together against norovirus Sydney 2012 RdRp.

[3] = target: T2, R419A norovirus RdRp (Norovirus GII.4 (Norwalk virus, human norovirus), UniProt K4L8Z7, R1608A); assay: Fluorescent RdRp assay, R419A mutant RdRp; format: biochemical; conditions: 0.1–100 µM
T2 sequence (K4L8Z7 1190-1699 R1608A): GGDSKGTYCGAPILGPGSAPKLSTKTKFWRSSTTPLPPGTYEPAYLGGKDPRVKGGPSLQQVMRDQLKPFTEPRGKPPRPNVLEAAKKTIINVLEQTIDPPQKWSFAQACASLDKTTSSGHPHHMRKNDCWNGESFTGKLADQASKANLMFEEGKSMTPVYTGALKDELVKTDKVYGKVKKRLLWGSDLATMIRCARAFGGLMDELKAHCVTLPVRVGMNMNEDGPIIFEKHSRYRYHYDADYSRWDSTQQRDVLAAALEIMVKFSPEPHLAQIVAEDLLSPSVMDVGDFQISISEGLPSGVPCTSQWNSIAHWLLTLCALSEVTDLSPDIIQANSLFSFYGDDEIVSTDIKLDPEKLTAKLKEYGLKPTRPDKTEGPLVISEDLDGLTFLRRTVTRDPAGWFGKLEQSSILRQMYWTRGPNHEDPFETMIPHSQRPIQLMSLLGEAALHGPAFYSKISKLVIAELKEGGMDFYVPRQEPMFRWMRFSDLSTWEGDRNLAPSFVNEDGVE
Description: Given the evidence of 54 being a site-B binding NNI, residues Q414 and R419 were mutated to alanine. These residues were previously shown by our research group and others to be critical for human norovirus RdRp site-B binding NNIs, and can create resistance to the drug through their mutagenesis[16],[17],[39]. After the mutant RdRps’ transcriptional activity was confirmed in a fluorescent RdRp assay (Q414A: 54%, R419A: 34% of wild-type activity, respectively), dose-response curves for 54 (0.1–100 µM) were produced to compare the IC50 values between the wild-type RdRp and the two mutant RdRps, Q414A and R419A (Fig. 13B). […]
(§2) Fluorescent RdRp activity assays were carried out as previously described[14],[62]. Briefly, RdRp activity was quantified by monitoring the formation of double-stranded RNA (dsRNA) from a single stranded homopolymeric template, poly(C) (Sigma Aldrich, St Louis, MO, USA), using the fluorescent dye PicoGreen (Life Technologies, Carlsbad, CA, USA). […] RdRps were incubated for 10 mins at 30 °C in the presence of the test compounds or the compound vehicle DMSO (0.5% vol/vol) before addition into the reaction mixture, which was then allowed to run 15 min at 30 °C then terminated with 10 mM EDTA, followed by PicoGreen staining and dsRNA quantitation. […] Antagonism was calculated using Compusyn software V1.0[59]. […]

[4] = system: RHDV RdRp; assay: Fluorescent RdRp activity assay, RHDV RdRp; format: biochemical, rabbit haemorrhagic disease virus; conditions: fixed concentration of 100 µM
Description: as §1, with “Moreover, the ability of each compound to inhibit the different RdRps in a similar range could be further confirmation of targeting a well-conserved binding site of the Caliciviridae family.” left out
as §2

In the case of `O=C1NN(c2ccccc2)C(=O)/C1=C/c1ccc(-c2ccc(S(=O)(=O)Nc3ccccc3)cc2)o1` [Compound 54], the IC50 [1] is reported as 12.1 µM, the IC50 [2] is reported as 5.6 µM and the IC50 [3] is reported as 10.2 µM. For the same molecule, the “inhibition of RHDV RdRp activity” value [4] was 99.0%.
